Reference: patent publication US11377442B2, “Small molecule agonists and antagonists of NR2F6 activity” (ZANDER THERAPEUTICS, INC., priority 2016, dated 2022)
Like-named read-outs stand apart in the source and are kept apart here.

Assays:
Format in all cases: cell-based
NR2F6 = target: T1, NR2F6 (Homo sapiens, UniProt P10588); test: NR2F6 agonist screening, Firefly signal cmpd/DMSO
T1 construct: expressed in transfected cells; also transient transfection
T1 sequence (P10588 1-404): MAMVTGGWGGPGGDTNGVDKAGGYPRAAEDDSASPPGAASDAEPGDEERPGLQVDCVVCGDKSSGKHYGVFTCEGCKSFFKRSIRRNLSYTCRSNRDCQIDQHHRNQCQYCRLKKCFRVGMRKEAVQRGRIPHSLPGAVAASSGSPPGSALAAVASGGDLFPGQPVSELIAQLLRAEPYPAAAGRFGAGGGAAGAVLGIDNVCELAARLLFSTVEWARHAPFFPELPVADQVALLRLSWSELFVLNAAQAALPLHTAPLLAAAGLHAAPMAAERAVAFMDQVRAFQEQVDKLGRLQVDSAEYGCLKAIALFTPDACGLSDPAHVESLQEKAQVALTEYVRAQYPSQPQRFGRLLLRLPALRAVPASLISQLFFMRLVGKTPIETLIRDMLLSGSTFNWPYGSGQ

Renilla = Renilla signal in NR2F6 agonist screening, cmpd/DMSO; settings: Renilla, F4
HEK293 pGL4 = test: Firefly_pGL signal, cmpd/DMSO (pGL4 control cells); settings: Homo sapiens
NR2F6 LBD = target: T2, NR2F6 LBD (Homo sapiens, UniProt P10588); test: NR2F6 LBD transient transfection; settings: LBD
T2 construct: expressed in transfected cells
T2 sequence (P10588 165-393 limits assumed): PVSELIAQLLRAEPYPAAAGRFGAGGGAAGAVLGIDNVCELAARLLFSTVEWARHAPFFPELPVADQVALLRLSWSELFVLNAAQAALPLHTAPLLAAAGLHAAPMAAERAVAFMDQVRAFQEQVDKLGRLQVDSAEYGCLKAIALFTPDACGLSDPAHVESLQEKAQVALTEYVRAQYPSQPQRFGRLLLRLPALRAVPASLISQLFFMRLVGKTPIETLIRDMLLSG
Protocol: FIGS. 27A and 27B show NR2F6 and LBD transient transfection, respectively, for Compound D28. Higher concentrations were excluded due to lower signal (tox effect). FIGS. 27C and 27D show NR2F6 and LBD transient transfection at different concentrations for different compounds. 9 compounds were tested on LBD transfected cells (40, 10, 2 and 0.5 μM, 4 replicates). FIGS. 27E and 27F show toxicity of Compound D28. 9 compounds were tested for cytotoxicity on LBD transfected cells (40, 10, 2 and 0.5 μM, 4 replicates). […] Cytotoxicity normalized to DMSO is shown in FIG. 27F (0% cytotoxicity corresponds to DMSO signal, 100%—zero signal).
FIGS. 34A and 34B show NR2F6 LBD transient transfection for Compound E21. 9 compounds were tested on LBD transfected cells (40, 10, 2 and 0.5 μM, 4 replicates). FIGS. 34C and 34D show NR2F6 and LBD transient transfection at different concentrations for different compounds. 9 compounds were tested on LBD transfected cells (40, 10, 2 and 0.5 μM, 4 replicates). […] Cytotoxicity normalized to DMSO is shown in FIG. 34D (0% cytotoxicity corresponds to DMSO signal, 100%—zero signal). All compounds were tested at 5, 10, 25 and 50 uM in duplicates. Dog PBMC (1×10^6 cells/mL) were activated by 10 ng/mL PMA+500 ng/mL ionomycin. Data were normalized to controls with (100%)/without (0%) PMA+ionomycin activation.
FIGS. 39A and 39B show NR2F6 LBD transient transfection for Compound F1. 9 compounds were tested on LBD transfected cells (40, 10, 2 and 0.5 μM, 4 replicates). FIGS. 39C and 39D show toxicity of NR2F6 LBD transient transfection. 9 compounds were tested for cytotoxicity on LBD transfected cells (40, 10, 2 and 0.5 μM, 4 replicates). Tox effect causes lower signal compared to DMSO. Cytotoxicity normalized to DMSO is shown in FIG. 39D (0% cytotoxicity corresponds to DMSO signal, 100%—zero signal).

[1] = read-out: Renilla, F4, cmpd/DMSO (mean)
[2] = 1% FBS, read-out: Renilla, F4, 1% FBS, cmpd/DMSO (mean)
[3] = 10% FBS, read-out: Renilla, F4, 10% FBS, cmpd/DMSO (mean)

Firefly F4, cmpd/DMSO (mean) (NR2F6; 0.5 uM): 1.7
Firefly F4, cmpd/DMSO (mean) (NR2F6; 2 uM): 1.9
Firefly F4, cmpd/DMSO (mean) (NR2F6; 10 uM): 3.5
Firefly F4, cmpd/DMSO (mean) (NR2F6; 40 uM): 1.4
F4, Firefly/Renilla for S/B(F4) > 3 (NR2F6; 1% FBS, 10 uM): 2.5
Firefly, F4/pGL4 for S/B(F4) > 3 (NR2F6; 1% FBS, 10 uM): 2.3
F4, Firefly/Renilla for S/B(F4) > 3 (NR2F6; 10% FBS, 40 uM): 2.5
Firefly, F4/pGL4 for S/B(F4) > 3 (NR2F6; 10% FBS, 40 uM): 2.3
Firefly, F4, 1% FBS, cmpd/DMSO (mean) (NR2F6; 1% FBS, 0.5 uM): 0.8
Firefly, F4, 1% FBS, cmpd/DMSO (mean) (NR2F6; 1% FBS, 2 uM): 1.4
Firefly, F4, 1% FBS, cmpd/DMSO (mean) (NR2F6; 1% FBS, 10 uM): 3.8
Firefly, F4, 1% FBS, cmpd/DMSO (mean) (NR2F6; 1% FBS, 40 uM): 0.8
Firefly, F4, 10% FBS, cmpd/DMSO (mean) (NR2F6; 10% FBS, 0.5 uM): 1.3
Firefly, F4, 10% FBS, cmpd/DMSO (mean) (NR2F6; 10% FBS, 2 uM): 1.0
Firefly, F4, 10% FBS, cmpd/DMSO (mean) (NR2F6; 10% FBS, 10 uM): 2.4
Firefly, F4, 10% FBS, cmpd/DMSO (mean) (NR2F6; 10% FBS, 40 uM): 5.9
Firefly LBD, cmpd/DMSO (mean) (NR2F6 LBD; 0.5 uM): 1.1
Firefly LBD, cmpd/DMSO (mean) (NR2F6 LBD; 2 uM): 1.4
Firefly LBD, cmpd/DMSO (mean) (NR2F6 LBD; 10 uM): 3.0
Firefly LBD, cmpd/DMSO (mean) (NR2F6 LBD; 40 uM): 0.8
SMILES: CC(C)CCN[C@H]1CS(=O)(=O)C[C@@H]1S(=O)(=O)c1cccs1 [Compound D110]
fold induction at 0.5 µM (Renilla; [1]): 1.1
fold induction at 2 µM (Renilla; [1]): 1.1
fold induction at 10 µM (Renilla; [1]): 1.3
fold induction at 40 µM (Renilla; [1]): 1.4
fold induction at 0.5 µM (Renilla; [2]): 1
fold induction at 2 µM (Renilla; [2]): 1.1
fold induction at 10 µM (Renilla; [2]): 1.5
fold induction at 40 µM (Renilla; [2]): 1.5
fold induction at 0.5 µM (Renilla; [3]): 1
fold induction at 2 µM (Renilla; [3]): 1
fold induction at 10 µM (Renilla; [3]): 1.5
fold induction at 40 µM (Renilla; [3]): 2.4
fold induction at 0.5 µM (HEK293 pGL4; HEK293, 0.5 uM, pGL4, read-out: Firefly pGL4, cmpd/DMSO (mean)): 1.2
fold induction at 2 µM (HEK293 pGL4; HEK293, 2 uM, pGL4, read-out: Firefly pGL4, cmpd/DMSO (mean)): 1.4
fold induction at 10 µM (HEK293 pGL4; HEK293, 10 uM, pGL4, read-out: Firefly pGL4, cmpd/DMSO (mean)): 3.3
fold induction at 40 µM (HEK293 pGL4; HEK293, 40 uM, pGL4, read-out: Firefly pGL4, cmpd/DMSO (mean)): 0.7
fold induction at 0.5 µM (HEK293 pGL4; HEK293, pGL4, 1% FBS, 0.5 uM, read-out: Firefly, pGL4, 1% FBS, cmpd/DMSO (mean)): 1
fold induction at 2 µM (HEK293 pGL4; HEK293, pGL4, 1% FBS, 2 uM, read-out: Firefly, pGL4, 1% FBS, cmpd/DMSO (mean)): 1.2
fold induction at 10 µM (HEK293 pGL4; HEK293, pGL4, 1% FBS, 10 uM, read-out: Firefly, pGL4, 1% FBS, cmpd/DMSO (mean)): 1.7
fold induction at 40 µM (HEK293 pGL4; HEK293, pGL4, 1% FBS, 40 uM, read-out: Firefly, pGL4, 1% FBS, cmpd/DMSO (mean)): 0.8
fold induction at 0.5 µM (HEK293 pGL4; HEK293, pGL4, 10% FBS, 0.5 uM, read-out: Firefly, pGL4, 10% FBS, cmpd/DMSO (mean)): 1.2
fold induction at 2 µM (HEK293 pGL4; HEK293, pGL4, 10% FBS, 2 uM, read-out: Firefly, pGL4, 10% FBS, cmpd/DMSO (mean)): 1.2
fold induction at 10 µM (HEK293 pGL4; HEK293, pGL4, 10% FBS, 10 uM, read-out: Firefly, pGL4, 10% FBS, cmpd/DMSO (mean)): 1.8
fold induction at 40 µM (HEK293 pGL4; HEK293, pGL4, 10% FBS, 40 uM, read-out: Firefly, pGL4, 10% FBS, cmpd/DMSO (mean)): 2.6
